Measurements as given in patent publication US8461328B2, “Tricyclic heterocyclic compounds, compositions and methods of use thereof” (Genentech, Inc., priority 2010, dated 2013).
pKi: −log10 of the molar value.

Key:
Format in all cases: biochemical
JAK3 = target: T1, JAK3 (Homo sapiens, UniProt P52333); assay: JAK3 inhibition (Table 4); conditions: read-out: JAK3 Ki
T1 construct: made in house; host or cells: SF9 insect cells (baculovirus)

JAK2 = target: T2, JAK2 (Homo sapiens, UniProt O60674); assay: JAK2 inhibition (Table 4); conditions: read-out: JAK2 Ki
T2 construct: made in house; host or cells: SF9 insect cells (baculovirus)
T2 sequence (O60674 812-1132): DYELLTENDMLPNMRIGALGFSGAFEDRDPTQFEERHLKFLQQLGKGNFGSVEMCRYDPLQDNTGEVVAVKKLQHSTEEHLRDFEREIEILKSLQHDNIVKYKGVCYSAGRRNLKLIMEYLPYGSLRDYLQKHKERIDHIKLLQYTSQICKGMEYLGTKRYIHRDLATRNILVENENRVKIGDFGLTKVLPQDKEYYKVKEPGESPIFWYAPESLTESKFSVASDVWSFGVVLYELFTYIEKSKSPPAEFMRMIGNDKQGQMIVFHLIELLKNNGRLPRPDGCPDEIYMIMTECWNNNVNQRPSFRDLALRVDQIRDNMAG

TYK2 = target: T3, TYK2 (Homo sapiens, UniProt P29597); assay: TYK2 inhibition (Table 4)
T3 construct: made in house; host or cells: SF9 insect cells (baculovirus)
T3 sequence (P29597 873-1187): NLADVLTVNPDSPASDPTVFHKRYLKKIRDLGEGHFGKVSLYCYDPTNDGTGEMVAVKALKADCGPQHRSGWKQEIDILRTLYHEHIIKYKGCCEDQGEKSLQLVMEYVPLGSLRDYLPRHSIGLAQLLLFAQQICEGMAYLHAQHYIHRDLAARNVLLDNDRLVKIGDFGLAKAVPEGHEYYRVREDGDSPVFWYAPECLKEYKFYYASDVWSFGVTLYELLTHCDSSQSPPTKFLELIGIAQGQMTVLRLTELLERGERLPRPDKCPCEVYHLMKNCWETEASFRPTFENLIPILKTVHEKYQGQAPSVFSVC

T1 sequence (P52333 783-1124): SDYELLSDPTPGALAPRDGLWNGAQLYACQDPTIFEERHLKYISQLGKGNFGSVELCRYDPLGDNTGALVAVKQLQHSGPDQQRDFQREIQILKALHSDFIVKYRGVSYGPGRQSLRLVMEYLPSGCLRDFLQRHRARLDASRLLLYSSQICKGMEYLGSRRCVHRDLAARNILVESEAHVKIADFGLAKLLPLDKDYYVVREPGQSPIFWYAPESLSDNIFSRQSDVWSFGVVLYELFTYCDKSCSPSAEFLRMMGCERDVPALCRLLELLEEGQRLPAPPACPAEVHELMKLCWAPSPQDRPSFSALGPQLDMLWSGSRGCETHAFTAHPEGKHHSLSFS

Row | pKi (JAK3) | pKi (JAK2) | pKi (TYK2) | Compound
1 | 7.04 | 7.85 | 7.22 | COC(=O)N[C@H]1CC[C@H](n2cnc3cnc4[nH]ccc4c32)CC1 [Example 311, [4-(6H-1,3,5,6-Tetraaza-as-indacen-1-yl)-cyclohexyl]-carbamic acid methyl ester]
2 | 7.12 | 7.34 | 7.71 | CS(=O)(=O)NCc1nc2cnc3[nH]ccc3c2n1C1CCCCC1 [Example 200, N-(1-Cyclohexyl-1,6-dihydro-1,2,3,5,6-tetraaza-as-indacen-2-ylmethyl)-methanesulfonamide]
3 | 7.22 | 7.03 | 7.52 | CC(=O)NCc1nc2cnc3[nH]ccc3c2n1C1CCCCC1 [Example 918, N-(1-Cyclohyl-1,6-dihydro-1,3,5,6-tetraaza-as-indacen-2-ylmethyl)-acetamide]
4 | 7.32 | 7.94 | 7.44 | N#CCCN[C@H]1CC[C@H](n2cnc3cnc4[nH]ccc4c32)CC1 [Example 275, 3-[4-(6H-1,3,5,6-Tetraaza-as-indacen-1-yl)-cyclohexylamino]-propionitrile]
5 | 6.77 | 7.37 | 6.82 | CS(=O)(=O)NCc1nc2cnc3[nH]ccc3c2n1C1CCN(CCC#N)CC1 [Example 208, N-{1-[1-(2-Cyano-ethyl)-piperidin-4-yl]-1,6-dihydro-1,2,3,5,6-tetraaza-as-indacen-2-ylmethyl}-methanesulfonamide]
6 | 6.48 | 8.18 | 7.51 | O=S(=O)(c1ccccc1)N1CCC(n2cnc3cnc4[nH]ccc4c32)CC1 [Example 55, 1-(1-Benzenesulfonyl-piperidin-4-yl)-1,6-dihydro-1,3,5,6-tetraaza-as-indacene]
7 | 7.16 | 7.33 | 6.93 | CS(=O)(=O)NCc1nc2cnc3[nH]ccc3c2n1C1CCN(CC(F)(F)F)CC1 [Example 692, N-{1-[1-(2,2,2-Trifluoro-ethyl)-piperidin-4-yl]-1,6-dihydro-1,2,3,5,6-tetraaza-as-indacen-2-ylmethyl}-methanesulfonamide]
8 | 6.54 | 7.74 | 6.83 | CC(C)(C)OC(=O)N[C@H]1CC[C@@H](n2cnc3cnc4[nH]ccc4c32)C1 [Example 136, [(1S,3R)-3-(6H-1,2,3,5,6-Tetraaza-as-indacen-1-yl)-cyclopentyl]-carbamic acid tert-butyl ester]
9 | 7.55 | 7.61 | 7.80 | CS(=O)(=O)NCCc1nc2cnc3[nH]ccc3c2n1C1CCCCC1 [Example 514, N-[2-(1-Cyclohexyl-1,6-dihydro-1,3,5,6-tetraaza-as-indacen-2-yl)-ethyl]-methanesulfonamide]
10 | 7.07 | 7.59 | 6.37 | CC1(n2cnc3cnc4[nH]ccc4c32)CCN(Cc2cncnc2)CC1 [Example 322, 1-(4-Methyl-1-pyrimidin-5-ylmethyl-piperidin-4-yl)-1,6-dihydro-1,3,5,6-tetraaza-as-indacene]
11 | 7.15 | 8.10 | 7.51 | CC1(n2cnc3cnc4[nH]ccc4c32)CCN(S(C)(=O)=O)CC1 [Example 332, 1-(1-Methanesulfonyl-4-methyl-piperidin-4-yl)-1,6-dihydro-1,3,5,6-tetraaza-as-indacene]
12 | 7.21 | 7.26 | 6.94 | CS(=O)(=O)NCc1nc2cnc3[nH]ccc3c2n1C1CCN(CCF)CC1 [Example 913, N-{1-[1-(2-Fluoro-ethyl)-piperidin-4-yl]-1,6-dihydro-1,3,5,6-tetraaza-as-indacen-2-ylmethyl}-methanesulfonamide]
13 | 7.42 | 8.34 | 7.72 | FC(F)(F)CN1CCC(n2cnc3cnc4[nH]ccc4c32)CC1 [Example 175, 1-[1-(2,2,2-Trifluoro-ethyl)-piperidin-4-yl]-1,6-dihydro-1,2,3,5,6-tetraaza-as-indacene]
14 | 7.05 | 7.95 | 7.43 | N#Cc1cccc(CN[C@H]2CC[C@H](n3cnc4cnc5[nH]ccc5c43)CC2)c1 [Example 219, 3-{[4-(6H-1,3,5,6-Tetraaza-as-indacen-1-yl)-cyclohexylamino]-methyl}-benzonitrile]
15 | 7.25 | 8.02 | 7.41 | CS(=O)(=O)N[C@H]1CC[C@@H](n2cnc3cnc4[nH]ccc4c32)CC1 [Example 321, N-[4-(6H-1,3,5,6-Tetraaza-as-indacen-1-yl)-cyclohexyl]-methanesulfonamide]
16 | 7.51 | 7.83 | 6.93 | O=C(CC(F)(F)F)NC1CCC(n2nnc3cnc4[nH]ccc4c32)C1 (racemic) [Example 619, Racemic trans 3,3,3-trifluoro-N-[3-(6H-1,2,3,5,6-pentaaza-as-indacen-1-yl)-cyclopentyl]-propionamide]
17 | 6.48 | 7.64 | 7.12 | c1cc2c(ncc3ncn([C@H]4CC[C@H](N5CCOCC5)CC4)c32)[nH]1 [Example 594, Trans 1-(4-Morpholin-4-yl-cyclohexyl)-1,6-dihydro-1,2,3,5,6-tetraaza-as-indacene]
18 | 6.88 | 7.70 | 6.67 | CC(C)(C)OC(=O)N[C@H]1CC[C@H](n2cnc3cnc4[nH]ccc4c32)CC1 [Example 107, Trans [4-(6H-1,3,5,6-tetraaza-as-indacen-1-yl)-cyclohexyl]-carbamic acid tert-butyl ester]
19 | 6.16 | 7.58 | 6.78 | O=C(c1ccccc1)N1CCC(n2cnc3cnc4[nH]ccc4c32)CC1 [Example 35, Phenyl-[4-(6H-1,3,5,6-tetraaza-as-indacen-1-yl)-piperidin-1-yl]methanone]
20 | 7.27 | 8.09 | 7.55 | COC(=O)NC1CCC(n2cnc3cnc4[nH]ccc4c32)C1 (racemic) [Example 734, [3-(6H-1,3,5,6-Tetraaza-as-indacen-1-yl)-cyclopentyl]-carbamic acid methyl ester]
21 | 7.19 | 7.13 | 6.95 | CC1CCCCC1n1c(CNS(C)(=O)=O)nc2cnc3[nH]ccc3c21 (stereo not drawn) [Example 917, N-[1-(2-Methyl-cyclohyl)-1,6-dihydro-1,3,5,6-tetraaza-as-indacen-2-ylmethyl]-methanesulfonamide]
22 | 7.21 | 7.55 | 7.66 | CCS(=O)(=O)NCCc1nc2cnc3[nH]ccc3c2n1C1CCCCC1 [Example 512, Ethanesulfonic acid [2-(1-cyclohexyl-1,6-dihydro-1,3,5,6-tetraaza-as-indacen-2-yl)-ethyl]-amide]
23 | 5.52 | 6.09 | 6.25 | CS(=O)(=O)NCc1nc2cnc3[nH]ccc3c2n1C1CCNCC1 [Example 206, N-(1-Piperidin-4-yl-1,6-dihydro-1,2,3,5,6-tetraaza-as-indacen-2-ylmethyl)-methanesulfonamide]
24 | 6.94 | 7.71 | 7.05 | N#Cc1ccnc(N2CCC(n3cnc4cnc5[nH]ccc5c43)CC2)c1 [Example 96, 4-(6H-1,3,5,6-Tetraaza-as-indacen-1-yl)-3,4,5,6-tetrahydro-2H-[1,2′]bipyridinyl-4′-carbonitrile]
25 | 6.62 | 6.79 | 6.94 | CS(=O)(=O)NCc1nc2cnc3[nH]ccc3c2n1C1CCCC1 [Example 874, N-(1-Cyclopentyl-1,6-dihydro-1,3,5,6-tetraaza-as-indacen-2-ylmethyl)-methanesulfonamide]
26 | 5.89 | 6.54 | 6.01 | CN1CCC[C@@H]1C(=O)N1CCC(n2cnc3cnc4[nH]ccc4c32)CC1 [Example 252, ((R)-1-Methyl-pyrrolidin-2-yl)-[4-(6H-1,3,5,6-tetraaza-as-indacen-1-yl)-piperidin-1-yl]-methanone]
27 | 5.91 | 7.29 | 6.73 | CC(C)CC(=O)N1CCC(n2cnc3cnc4[nH]ccc4c32)CC1 [Example 83, 3-Methyl-1-[4-(6H-1,3.5,6-tetraaza-as-indacen-1-yl)-piperidin-1-yl]-butan-1-one]
28 | 7.22 | 7.45 | 7.40 | CS(=O)(=O)NCc1nc2cnc3[nH]ccc3c2n1C1CCN(CC(F)F)CC1 [Example 914, N-{1-[1-(2,2-Difluoro-ethyl)-piperidin-4-yl]-1,6-dihydro-1,3,5,6-tetraaza-as-indacen-2-ylmethyl}-methanesulfonamide]
29 | 6.74 | 8.15 | 7.29 | COC(=O)N(C)[C@H]1CC[C@H](n2cnc3cnc4[nH]ccc4c32)CC1 [Example 143, Trans Methyl-[4-(6H-1,2,3,5,6-tetraaza-as-indacen-1-yl)-cyclohexyl]-carbamic acid methyl ester]
30 | 7.04 | 7.69 | 6.79 | CC(C)(C)OC(=O)N[C@@H]1CC[C@H](n2cnc3cnc4[nH]ccc4c32)C1 [Example 135, [(1R,3S)-3-(6H-1,2,3,5,6-Tetraaza-as-indacen-1-yl)-cyclopentyl]-carbamic acid tert-butyl ester]

Row | Compound | pKi (JAK3) | pKi (JAK2) | pKi (TYK2)
31 | C[C@@H](O)c1nc2cnc3[nH]ccc3c2n1C1CCCCC1 [Example 671, (R)-1-(1-Cyclohexyl-1,6-dihydro-1,2,3,5,6-tetraaza-as-indacen-2-yl)-ethanol] | 7.65 | 7.74 | 8.61
32 | C[C@@H](O)c1nc2cnc3[nH]ccc3c2n1C1CCCCC1 [Example 672, (R)-1-(1-Cyclohexyl-1,6-dihydro-1,2,3,5,6-tetraaza-as-indacen-2-yl)-ethanol-d11] | 7.77 | 7.70 | 8.52
